SMILES strings stand for the structures. Counter-ions that a name gives are not always drawn.

In one series the target is T1, 5-HT transporter (Rattus norvegicus, UniProt P31652).
T1 construct: frontal cortical membranes prepared from male S.D. rats; from tissue; host or cells: rat frontal cortex membranes (male Sprague-Dawley)
The series can be described thus: Rat Brain 3H-Paroxetine Binding Assay (RB 5HT Transporter). How it is done: Rat Brain ^3H-Paroxetine Binding Assay (RB 5HT Transporter):
This assay is used to determine a compound's affinity of the 5-HT transporter.
Briefly, frontal cortical membranes prepared from male S.D. rats are incubated with ^3H-parxetine (0.1 nM) for 60 min. at 25° C. All tubes contain either vehicle, test compound (one to eight concentrations), or a saturating concentration of fluoxetine (10 μM) to define […]. All reactions are terminated by the addition of ice cold Tris buffer followed by rapid filtration using a Tom Tech filtration device to separate bound from free ^3H-paroxetine.

The target of another series is T2, Human 5-HT Transporter (Homo sapiens, UniProt P31645).
T2 construct: endogenous in cells; host or cells: JAR human carcinoma cells, treated with staurosporine
Kind of series: Inhibition of 3H-5-HT Uptake by Cells Possessing the Human 5-HT Transporter (HC 5HT Transporter). Format: cell-based. The method, then: On the day of assay, vehicle, excess of fluoxetine, or test compound is added to various wells on the plate. All wells then receive ^3H-5-HT and are incubated at 37° C. for 5 min. The wells are then washed with ice cold 50 mM Tris HCl (pH 7.4) buffer and aspirated to remove free ^3H-5-HT. 25 μl of 0.25 M NaOH is then added to each well to lyse the cells and 75 μl scintillation cocktail (Microscint™ 20) added prior to quantitation on a Packard TopCount machine. Tubes with vehicle represent total possible uptake; radioactivity counted in tubes with fluoxetine represent nonspecific binding/uptake and is subtracted from the total possible uptake to give total possible specific uptake. […] Specific uptake is then expressed as a % of control values and is analyzed using nonlinear regression analysis (Prizm) to determine IC50 values.

In the next series the target is T3, human 5-HT1A receptor (Homo sapiens, UniProt P08908).
T3 construct: expressed in transfected cells
T3 sequence (P08908 1-422): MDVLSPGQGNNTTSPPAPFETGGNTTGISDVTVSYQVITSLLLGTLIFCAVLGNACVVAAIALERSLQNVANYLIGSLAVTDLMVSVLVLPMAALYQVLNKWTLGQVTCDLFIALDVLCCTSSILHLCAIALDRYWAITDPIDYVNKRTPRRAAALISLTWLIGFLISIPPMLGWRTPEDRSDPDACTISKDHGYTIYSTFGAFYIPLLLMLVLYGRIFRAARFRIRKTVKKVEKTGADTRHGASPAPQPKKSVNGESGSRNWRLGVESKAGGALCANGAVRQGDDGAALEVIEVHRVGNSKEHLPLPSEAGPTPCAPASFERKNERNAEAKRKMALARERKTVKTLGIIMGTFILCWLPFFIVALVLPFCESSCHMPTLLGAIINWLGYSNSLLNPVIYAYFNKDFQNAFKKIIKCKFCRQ
The series can be described thus: HC 5-HT1A binding assay ([3H]8-OH-DPAT radioligand binding, h5-HT1A.CHO cell membranes). How it is done:
Cloning of Human 5-HT1A Receptor:
A stable Chinese hamster ovary cell line expressing the human 5-HT1A receptor subtype (h5-HT1A.CHO cells) is employed throughout this study. Cells are maintained in DMEM supplemented with 10% fetal calf serum, non-essential amino acids and penicillin/streptomycin.
Cells are grown to 95-100% confluency as a monolayer before membranes are harvested for binding studies. Cells are gently scraped from the culture plates, transferred to centrifuge tubes, and washed twice by centrifugation (2000 rpm for 10 min., 4° C.) in buffer (50 mM Tris; pH 7.5). The resulting pellets are aliquoted and placed at −80 C. On the day of assay, the cells are thawed on ice, and resuspended in buffer. Studies are conducted using [^3H]8-OH-DPAT as the radioligand. The binding assay is performed in 96-well microtiter plates in a final total volume of […] of buffer. […] Non-specific binding is determined in the presence of 10 μM 5HT. Saturation analysis is conducted by using [^3H]8-OH-DPAT at concentrations ranging from 0.3-30 nM. Following a 30 minute incubation at room temperature, the reaction is terminated by the addition of ice cold buffer and rapid filtration using a M-96 Brandel Cell Harvester (Gaithersburg, Md.) through a GF/B filter presoaked for 30 minutes in 0.5% polyethyleneimine.
^3H-Paroxetine Binding to Assess Affinity of Drugs for the Serotonin Transporter ([…]):
Briefly, frontal cortical membranes prepared from male S.D. rats are incubated with ^3H-paroxetine (0.1 nM) for 60 min at 25° C. All tubes contain either vehicle, test compound (one to eight concentrations), or a saturating concentration of fluoxetine (10 μM) to define […]. All reactions are terminated by the addition of ice cold Tris buffer followed by rapid filtration using a Tom Tech filtration device to separate bound from free ^3H-paroxetine.

Series [1] addresses T4, cloned human 5-HT1A receptors (Homo sapiens, UniProt P08908).
T4 construct: expressed in transfected cells
T4 sequence (P08908 1-422): T3 sequence (P08908 1-422)
The series can be described thus: Assessment of agonism/antagonism at the 5-HT1A receptor using [35S]-GTPγS binding. Format: biochemical. The method, then: Assessment of Agonism/Antagonism at the 5-HT1A Receptor using [^35S]-GTPγS Binding to Cloned Human 5-HT1A Receptors:
Briefly, 5-HT1A cloned receptor membrane fragments (as used for 5-HT1A receptor binding assays) are stored at −70° C. until needed. When needed, membranes are rapidly thawed, centrifuged at 40,000× g for 10 minutes and resuspended at 4° C. for 10 minutes in assay buffer (25 mM HEPES, 3 mM MgCl2, 100 mM NaCl, 1 mM EDTA, 10 uM GDP, […], pH 8.0). These membranes are then incubated for 30 min at 30° C. with [^35S]GTPgS (1 nM) in the presence of vehicle, test compound (one to eight concentrations), or excess 8-OH-DPAT to define maximum agonist response. All reactions are terminated by the addition of ice cold Tris buffer followed by rapid filtration using a Tom Tech® filtration device to separate bound from free [^35S]GTPgS. Agonists produce an increase in the amount of [^35S]GTPgS bound whereas antagonists produce no increase in binding. Bound radioactivity is counted and analyzed as above.
Background: GTPγS is a poorly hydrolysed GTP analogue; its binding reports G protein activation.

T2 sequence (P31645 whole entry): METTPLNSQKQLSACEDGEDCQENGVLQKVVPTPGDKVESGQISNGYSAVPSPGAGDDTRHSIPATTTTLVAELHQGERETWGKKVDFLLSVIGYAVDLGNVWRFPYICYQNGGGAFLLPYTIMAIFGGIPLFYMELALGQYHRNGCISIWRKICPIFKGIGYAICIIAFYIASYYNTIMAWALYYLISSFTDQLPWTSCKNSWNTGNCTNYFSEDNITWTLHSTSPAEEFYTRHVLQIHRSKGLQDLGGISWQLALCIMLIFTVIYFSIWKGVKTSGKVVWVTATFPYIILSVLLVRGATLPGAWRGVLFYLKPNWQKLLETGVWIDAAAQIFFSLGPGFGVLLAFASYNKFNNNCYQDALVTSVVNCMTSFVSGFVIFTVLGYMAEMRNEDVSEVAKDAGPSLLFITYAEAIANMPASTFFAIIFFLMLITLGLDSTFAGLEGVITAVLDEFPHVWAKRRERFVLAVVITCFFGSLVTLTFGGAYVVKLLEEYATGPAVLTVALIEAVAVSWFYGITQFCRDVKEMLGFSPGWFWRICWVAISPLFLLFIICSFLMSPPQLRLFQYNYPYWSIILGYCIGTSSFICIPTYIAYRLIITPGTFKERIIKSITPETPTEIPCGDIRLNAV
T1 sequence (P31652 whole entry): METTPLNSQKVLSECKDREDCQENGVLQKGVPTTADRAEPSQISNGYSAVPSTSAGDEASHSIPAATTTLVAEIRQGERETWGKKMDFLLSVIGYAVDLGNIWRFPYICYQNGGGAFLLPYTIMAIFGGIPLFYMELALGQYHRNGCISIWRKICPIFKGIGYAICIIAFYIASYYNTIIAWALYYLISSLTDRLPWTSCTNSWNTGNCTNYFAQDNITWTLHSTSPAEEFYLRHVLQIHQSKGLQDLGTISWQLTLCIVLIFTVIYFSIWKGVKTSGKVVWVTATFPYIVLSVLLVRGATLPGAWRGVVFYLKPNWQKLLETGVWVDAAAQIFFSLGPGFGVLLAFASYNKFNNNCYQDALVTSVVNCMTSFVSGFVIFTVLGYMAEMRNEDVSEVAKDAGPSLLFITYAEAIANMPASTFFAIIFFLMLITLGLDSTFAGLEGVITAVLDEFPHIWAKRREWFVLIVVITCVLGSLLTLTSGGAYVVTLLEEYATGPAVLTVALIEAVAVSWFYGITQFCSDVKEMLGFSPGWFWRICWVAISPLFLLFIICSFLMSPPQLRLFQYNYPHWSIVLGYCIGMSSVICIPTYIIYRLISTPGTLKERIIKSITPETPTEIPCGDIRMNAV

What is called melting point is the temperature of the solid-liquid transition. Regarding `C1=C(c2c[nH]c3ccccc23)CC2CCC1N2CCOc1cccc2ncccc12` (stereo not drawn) (as salt: oxalate) [Example 3, 2-[3-(1H-Indol-3-yl)-8-azabicyclo[3.2.1]oct-2-en-8-yl]ethyl 5-quinolinyl Ether], the melting point is 91 to 93 °C (dec.).
As for `c1ccc2cc(C3CC4CCC(C3)N4CCOc3cccc4[nH]ccc34)ccc2c1` (stereo not drawn) (as salt: oxalate) [Example 12, 4-[2-(3-Naphthalen-2-yl-8-aza-bicyclo[3.2.1]oct-8-yl)-ethoxy]-1H-indole], the melting point was 119 to 120 °C (dec.).
One may read the Ki as the equilibrium dissociation constant of an inhibitor or competing ligand from its target. Low readings indicate a stronger hold on the target, high ones a looser hold on the target. By IC50 is commonly meant the midpoint of a concentration-inhibition curve. Read a low IC50 as greater potency. In the case of `COc1ccc2cc(C3=CC4CCC(C3)N4CCOc3cccc4[nH]ccc34)ccc2c1` (stereo not drawn) [Example 10, 4-{2-[3-(6-Methoxy-naphthalen-2-yl)-8-aza-bicyclo[3.2.1]oct-2-en-8-yl]-ethoxy}-1H-indole], the Ki on 5-HT transporter came to 1.11 nM. At Human 5-HT Transporter, this compound had an IC50 of 58.6 nM.
On to `C1=C(c2ccc3ccccc3c2)CC2CCC1N2CCOc1cccc2c1OCCO2` (stereo not drawn) [Example 4, 8-[2-(2,3-Dihydro-benzo[1,4]dioxin-5-yloxy)-ethyl]-3-naphthalen-2-yl-8-aza-bicyclo[3.2.1]oct-2-ene], for which the Ki at human 5-HT1A receptor turned out to be 329 nM; on 5-HT transporter it was 0.17 nM. This compound also had an IC50 against Human 5-HT Transporter of 21.7 nM.
Take `FC(F)(F)c1cccc(OCCN2C3C=C(c4ccc5ccccc5c4)CC2CC3)c1` (stereo not drawn) (as salt: oxalate) [Example 11, 3-Naphthalen-2-yl-8-[2-(3-trifluoromethyl-phenoxy)-ethyl]-8-aza-bicyclo[3.2.1]oct-2-ene]: the melting point is 128 to 130 °C (dec.).
For the compound `COc1cc(NCCN2C3C=C(c4ccc5ccccc5c4)CC2CC3)c2ncccc2c1` (stereo not drawn) (as salt: oxalate) [Example 5, 6-Methoxy-N-{2-[3-(2-naphthyl)-8-azabicyclo[3.2.1]oct-2-en-8-yl]ethyl}-8-quinolinamine], the melting point was 179 to 182 °C.
Compound `c1ccc2cc(C3CC4CCC(C3)N4CCOc3cccc4cccnc34)ccc2c1` (stereo not drawn) [Example 17, 8-{2-[3-(2-Naphthyl)-8-azabicyclo[3.2.1]oct-8-yl]ethoxy}quinoline] had a melting point of 110 to 113 °C. The same compound yielded a Ki on 5-HT transporter of 0.13 nM.
For `COc1cc(OCCN2C3C=C(c4ccc5ccccc5c4)CC2CC3)c2ncccc2c1` (stereo not drawn) (as salt: oxalate), the melting point is 100 to 103 °C.
`c1ccc2cc(C3CC4CCC(C3)N4CCSc3cccc4cccnc34)ccc2c1` (stereo not drawn) [Example 18, 8-({2-[3-(2-Naphthyl)-8-azabicyclo[3.2.1]oct-8-yl]ethyl}sulfanyl)quinoline] displayed a melting point of 200 to 203 °C. At human 5-HT1A receptor, this compound gave a Ki of 256 nM. The compound also gave a Ki on 5-HT transporter of 0.06 nM. Besides, the IC50 at Human 5-HT Transporter was 3.5 nM.
`c1ccc2cc(C3CC4CCC(C3)N4CCOc3cccc4[nH]ccc34)ccc2c1` (stereo not drawn) [Example 12, 4-[2-(3-Naphthalen-2-yl-8-aza-bicyclo[3.2.1]oct-8-yl)-ethoxy]-1H-indole] displayed a Ki at 5-HT transporter of 0.39 nM. The same compound had an IC50 against Human 5-HT Transporter of 35.7 nM.
As for `COc1ccc2cc(C3=CC4CCC(C3)N4CCOc3cccc4[nH]ccc34)ccc2c1` (stereo not drawn) (as salt: oxalate) [Example 10, 4-{2-[3-(6-Methoxy-naphthalen-2-yl)-8-aza-bicyclo[3.2.1]oct-2-en-8-yl]-ethoxy}-1H-indole], the melting point is 130 to 132 °C (dec.).
Consider `FC(F)(F)c1cccc(OCCN2C3C=C(c4ccc5ccccc5c4)CC2CC3)c1` (stereo not drawn) [Example 11, 3-Naphthalen-2-yl-8-[2-(3-trifluoromethyl-phenoxy)-ethyl]-8-aza-bicyclo[3.2.1]oct-2-ene], for which, at 5-HT transporter, the affinity, expressed as Ki, was 34 nM. On Human 5-HT Transporter, this compound gave an IC50 of 191 nM.
Consider `COc1cc(NCCN2C3C=C(c4ccc5ccccc5c4)CC2CC3)c2ncccc2c1` (stereo not drawn) [Example 5, 6-Methoxy-N-{2-[3-(2-naphthyl)-8-azabicyclo[3.2.1]oct-2-en-8-yl]ethyl}-8-quinolinamine], for which the Ki at 5-HT transporter was found to be 2.67 nM. In addition, 42.8 nM corresponded to half-maximal inhibition against Human 5-HT Transporter (IC50).
`C1=C(c2ccc3ccccc3c2)CC2CCC1N2CCNc1cccc2cccnc12` (stereo not drawn) [Example 7, N-{2-[3-(2-Naphthyl)-8-azabicyclo[3.2.1]oct-2-en-8-yl]ethyl}-8-quinolinamine] showed a melting point of 199 to 200 °C. In addition, the Ki on 5-HT transporter was 1.61 nM.
`Clc1cc(NCCN2C3C=C(c4ccc5ccccc5c4)CC2CC3)c2ncccc2c1` (stereo not drawn) [Example 6, 6-Chloro-N-{2-[3-(2-naphthyl)-8-azabicyclo[3.2.1]oct-2-en-8-yl]ethyl}-8-quinolinamine] displayed a melting point of 205 to 206 °C. Moreover, the Ki at 5-HT transporter turned out to be 7.5 nM.
`C1=C(c2ccc3ccccc3c2)CC2CCC1N2CCOc1cccc2c1OCCO2` (stereo not drawn) (as salt: oxalate) [Example 4, 8-[2-(2,3-Dihydro-benzo[1,4]dioxin-5-yloxy)-ethyl]-3-naphthalen-2-yl-8-aza-bicyclo[3.2.1]oct-2-ene]: the melting point is 151 to 153 °C (dec.).
As a reminder, the Emax is the maximal effect, on the per cent scale that the assay sets. For `C1=C(c2c[nH]c3ccccc23)CC2CCC1N2CCOc1cccc2ncccc12` (stereo not drawn) [Example 3, 2-[3-(1H-Indol-3-yl)-8-azabicyclo[3.2.1]oct-2-en-8-yl]ethyl 5-quinolinyl Ether], the inhibition constant Ki was 173 nM on human 5-HT1A receptor and 2.27 nM at 5-HT transporter. Also, the IC50 was 86.5 nM at Human 5-HT Transporter and 1170 nM in series [1]. Also, the Emax in series [1] (excess 8-OH-DPAT defines maximum agonist response, read-out: [35S]GTPgS Emax) was found to be 0%.
